Assay results published in patent US7745424B2, “Alkane diol derivatives as therapeutic agents for the treatment of bone conditions” (The Univeristy Court of the University of Aberdeen, priority 2001, dated 2010).

Legend:
[1] = system: macrophage cell line J774; assay: MTT macrophage J774 viability assay; format: cell-based; conditions: for IC50: Mus musculus, macrophage J774 viability; for IC50 / macrophage J774 viability, activity in words: MTT assay; for macrophage J774 viability, activity in words: range of concentrations (FIGS. 4-7)
Method: MTT (3-(4,5-dimethylthiazol-2-yl)-2,5-diphenyl tetrazolium bromide) has an […] colour and is soluble in the medium used for cell culture. The mitochondrial enzyme succinate dehydrogenase acts upon MTT in living cells to produce the insoluble purple coloured formazan. The amount of formazan produced, as measured by UV/visible spectroscopy, is proportional to the number of viable cells.
The medium was carefully removed using a needle without dislodging the crystal layer. 100 μL acidified isopropanol (4 M HCl 1:100 v/v in isopropanol) was added to each well and the purple crystals allowed to dissolve. The absorbance was measured in a plate reader at 540 nm, with 690 nm as reference. The controls were a deep purple colour, indicating a high number of live cells.
Addition of Compounds. […] These stock solutions were then diluted 100× in culture medium.

[2] = system: macrophage cell line J774; assay: Alamar Blue macrophage J774 viability assay; conditions: Mus musculus, J774, 72 h, read-out: IC50 (μM) Alamar Blue

| Compound | IC50 [1] | IC50 [2] | also measured |
| --- | --- | --- | --- |
| CC(=O)OCCCCOC(C)=O [ABD-0006, 1,4-Butanediol di(acetic acid)Ester] | > 100 µM |  |  |
| CCCC(=O)OCCCCOC(=O)CCC [ABD-0007, 1,4-Butanediol di(butanoic acid)Ester] | > 100 µM |  |  |
| O=C(OCCCCO)c1ccccc1 [ABD-0008, 1,4-Butanediol mono(benzoic acid)Ester] | > 100 µM |  |  |
| O=C(OCCCCOC(=O)c1ccccc1)c1ccccc1 [ABD-0009, 1,4-Butanediol di(benzoic acid)Ester] | > 100 µM |  |  |
| O=C(Cc1ccccc1)OCCCCOC(=O)Cc1ccccc1 [ABD-0014, 1,4-Butanediol di(phenylacetic acid)Ester] | > 100 µM |  |  |
| O=C(Cc1ccccc1)OCCCCCCOC(=O)Cc1ccccc1 [ABD-0017, 1,6-Hexanediol di(phenylacetic acid)Ester] | > 100 µM |  |  |
| O=C(OCCCCOC(=O)C1CCCCC1)C1CCCCC1 [ABD-0019, 1,4-Butanediol di(cyclclohexanecarboxylic acid)Ester] | > 100 µM |  |  |
| O=C(OCCCCCO)C(c1ccccc1)(c1ccccc1)c1ccccc1 [ABD-0030, 1,5-Pentandiol mono(triphenylacetic acid)Ester] | 40 µM |  |  |
| O=C(OCCCCCCO)C(c1ccccc1)(c1ccccc1)c1ccccc1 [ABD-0031, 1,6-Hexandiol mono(triphenylacetic acid)Ester] | 40 µM |  |  |
| O=C(Cc1cccc2ccccc12)OCCCCO [ABD-0032, 1,4-Butanediol mono(naphth-1-yl-acetic acid)Ester] | > 100 µM |  | activity at 100 μM concentration [1]: little activity |
| COc1ccc(CC(=O)OCCCCO)cc1OC [ABD-0033, 1,4-Butanediol mono(homoveratric acid)Ester] | > 100 µM |  | activity at 100 μM concentration [1]: little activity |
| O=C(OCCCCO)c1ccc(Cc2ccccc2)cc1 [ABD-0034, 1,4-Butanediol mono(4-benzylbenzoic acid)Ester] | > 100 µM |  | activity at 100 μM concentration [1]: little activity |
| CCCCOC(=O)C(C)c1ccc(CC(C)C)cc1 (stereo not shown) [ABD-0035, Butyl [2-(4-isobutylphenyl)Propionic acid] ester] | 72 µM |  |  |
| CC(C)Cc1ccc(C(C)C(=O)OCCCCO)cc1 (stereo not shown) [ABD-0036, 1,4-Butanediol mono[2-(4-isobutylphenyl)Propionic acid]ester] | 52 µM |  | macrophage J774 viability, activity in words [1]: most active |
| CC(C)Cc1ccc(C(C)C(=O)OCCCO)cc1 (stereo not shown) [ABD-0037, 1,3-Propanediol mono[2-(4-isobutylphenyl)Propionic acid]ester] | 72 µM |  |  |
| CC(C)Cc1ccc(C(C)C(=O)OCCCCCO)cc1 (stereo not shown) [ABD-0038, 1,5-Pentanediol mono[2-(4-isobutylphenyl)Propionic acid]ester] | 68 µM |  |  |
| CC(C)Cc1ccc(C(C)C(=O)OCCCCCCO)cc1 (stereo not shown) [ABD-0039, 1,6-Hexanediol mono[2-(4-isobutylphenyl)Propionic acid]ester] | 72 µM |  |  |
| CCCCOC(=O)Cc1ccc(-c2ccccc2)cc1 [ABD-0040, Butyl (biphenyl-4-yl-acetic acid) ester] | > 100 µM |  |  |
| O=C(Cc1ccc(-c2ccccc2)cc1)OCCCO [ABD-0041, 1,3-Propanediol mono(biphenyl-4-yl-acetic acid)Ester] | 75 µM |  |  |
| O=C(Cc1ccc(-c2ccccc2)cc1)OCCCCCO [ABD-0043, 1,5-Pentanediol mono(biphenyl-4-yl-acetic acid)Ester] | > 100 µM |  |  |
| O=C(Cc1ccc(-c2ccccc2)cc1)OCCCCCCO [ABD-0044, 1,6-Hexanediol mono(biphenyl-4-yl-acetic acid)Ester] | 28 µM |  | macrophage J774 viability, activity in words [1]: very active |

| Compound | IC50 [1] | IC50 [2] | also measured |
| --- | --- | --- | --- |
| CC(=O)OCCCCOC(=O)c1ccc(-c2ccccc2)cc1 [ABD-0049, Biphenyl-4-carboxylic acid (4-acetoxy)butyl ester] |  | 50 µM |  |
| COCCCCOC(=O)c1ccc(-c2ccccc2)cc1 [ABD-0050, 4-Methoxybutyl (biphenyl-4-carboxylic acid) ester] |  | > 100 µM |  |
| CCCCOC(=O)c1ccc(-c2ccccc2)cc1 [ABD-0053, Butyl (biphenyl-4-carboxylic acid) ester] | > 100 µM |  | macrophage J774 viability, activity in words [1]: very little activity |
| O=C(OCCCCCO)c1ccc(-c2ccccc2)cc1 [ABD-0055, 1,5-Pentanediol mono(biphenyl-4-carboxylic acid)Ester] | 65 µM |  |  |
| O=C(OCCCO)c1ccc(-c2ccccc2)cc1 [ABD-0057, 1,3-Propanediol mono(biphenyl-4-carboxylic acid)Ester] | > 100 µM |  |  |
| O=C(OCCCCO)c1ccccc1-c1ccccc1 [ABD-0059, 1,4-Butanediol (biphenyl-2-carboxylic acid) ester] | > 100 µM |  | activity at 100 μM concentration [1]: little activity |
| O=C(OCCCCO)c1ccc(I)cc1 [ABD-0069, 1,4-Butanediol mono(4-iodobenzoic acid)Ester] |  | 90 µM |  |
| Cc1ccc(-c2ccc(C(=O)OCCCCO)cc2)cc1 [ABD-0070, 1,4-Butanediol mono(4′-methyl-biphenyl-4-carboxylic acid)Ester] |  | > 100 µM |  |
| O=C(OCCCCO)c1ccc(-c2ccc(O)cc2)cc1 [ABD-0072, 1,4-Butanediol mono(4′-hydroxy-biphenyl-4-carboxylic acid)Ester] |  | 45 µM |  |
| O=C(OCCCCO)c1c(F)c(F)c(F)c(F)c1F [ABD-0077, 1,4-Butanediol mono(pentafluorobenzoic acid)Ester] |  | 25 µM |  |
| O=C(OCCCCOC(=O)c1c(F)c(F)c(F)c(F)c1F)c1c(F)c(F)c(F)c(F)c1F [ABD-0085, 1,4-Butanediol di(pentafluorobenzoic acid)Ester] |  | 4 µM |  |
| O=C(OCCCCBr)c1ccc(-c2ccccc2)cc1 [ABD-0086, 4-Bromobutyl (biphenyl-4-carboxylic acid) ester] |  | > 100 µM |  |
| O=C(OCCCCO[N+](=O)[O-])c1ccc(-c2ccccc2)cc1 [ABD-0087, 4-Nitrooxybutyl (biphenyl-4-carboxylic acid) ester] |  | 30 µM |  |
| Cc1ccc(-c2ccc(C(=O)OCCCCO)cc2)cc1C [ABD-0089, 1,4-Butanediol mono(3′,4′-dimethyl-biphenyl-4-carboxylic acid)Ester] |  | 9 µM |  |
| CCCCCOC(=O)c1ccc(-c2ccccc2)cc1 [ABD-0090, Pentyl (biphenyl-4-carboxylic acid) ester] |  | 45 µM |  |
| CCc1ccc(-c2ccc(C(=O)OCCCCO)cc2)cc1 [ABD-0094, 1,4-Butanediol mono(4′-ethyl-biphenyl-4-carboxylic acid)Ester] |  | > 100 µM |  |
| O=C(OCC(F)(F)C(F)(F)CO)c1ccc(-c2ccccc2)cc1 [ABD-0095, 2,2,3,3-Tetrafluoro-butane-1,4-diol mono(biphenyl-4-carboxylic acid)Ester] |  | 40 µM |  |
| COc1ccc(-c2ccc(C(=O)OCCCCO)cc2)cc1 [ABD-0097, 1,4-Butanediol mono(4′-methoxy-biphenyl-4-carboxylic acid)Ester] |  | > 100 µM |  |
| O=C(OCCCCO)c1ccc(-c2ccccc2[N+](=O)[O-])cc1 [ABD-0098, 1,4-Butanediol mono(2′-nitro-biphenyl-4-carboxylic acid)Ester] |  | 17 µM |  |
| O=C(OCCCCO)c1ccc(-c2ccccc2F)cc1 [ABD-0099, 1,4-Butanediol mono(2′-fluoro-biphenyl-4-carboxylic acid)Ester] |  | 14 µM |  |
| O=C(O)c1ccc(-c2ccccc2)cc1 [biphenylcarboxylic acid, reference compound] |  |  | macrophage J774 viability, activity in words [1]: not active |
